Drawing on patent US9617253B2, “Molecules having pesticidal utility, and intermediates, compositions, and processes, related thereto” (Dow AgroSciences LLC, priority 2015, dated 2017), this text covers mortality for 19 molecules.

The subject of test [1] is Beet Armyworm (Spodoptera exigua, LAPHEG). As to the kind of experiment: Bioassay on Beet Armyworm (BAW), 128-well diet tray assay. In kind it is in vivo. The note with it: 168 h, second instar BAW larvae, 50 μg/cm^2 on artificial diet, 25° C., five to seven days, average of eight wells, read-out: BAW % Control (or Mortality) rating. The protocol: (§1) Certain molecules disclosed in this document were tested against BAW and CL using procedures described in the following examples. In the reporting of the results, the “BAW & CL Rating Table” was used (See Table Section).
Bioassays on BAW were conducted using a 128-well diet tray assay. One to five second instar BAW larvae were placed in each well (3 mL) of the diet tray that had been previously filled with 1 mL of artificial diet to which 50 μg/cm^2 of the test molecule (dissolved in 50 μL of 90:10 acetone-water mixture) had been applied (to each of eight wells) and then allowed to dry. Trays were covered with a clear self-adhesive cover, vented to allow gas exchange, and held at 25° C., 14:10 light-dark for five to seven days. Percent mortality was recorded for the larvae in each well; activity in the eight wells was then averaged. The results are indicated in the table entitled “Table ABC: Biological Results” (See Table Section).

Test [2] has as its system Cabbage Looper (Trichoplusia ni, TRIPNI). As to the kind of experiment: Bioassay on Cabbage Looper (CL), 128-well diet tray assay. The format is in vivo. The note with it: 168 h, second instar CL larvae, 50 μg/cm^2 on artificial diet, 25° C., five to seven days, average of eight wells, read-out: CL % Control (or Mortality) rating. Here is the method:
as §1
Bioassays on CL were conducted using a 128-well diet tray assay. One to five second instar CL larvae were placed in each well (3 mL) of the diet tray that had been previously filled with 1 mL of artificial diet to which 50 μg/cm^2 of the test molecule (dissolved in 50 μL of 90:10 acetone-water mixture) had been applied (to each of eight wells) and then allowed to dry. Trays were covered with a clear self-adhesive cover, vented to allow gas exchange, and held at 25° C., 14:10 light-dark for five to seven days. Percent mortality was recorded for the larvae in each well; activity in the eight wells was then averaged. The results are indicated in the table entitled “Table ABC: Biological Results” (See Table Section).

The structures appear in SMILES notation.

In the case of `Cc1ccc(C(C)C)c(N2C(=O)CS/C2=N\C(=O)Nc2ccc(COc3ncn(-c4ccc(OC(F)(F)F)cc4)n3)cc2)c1` [F1, (Z)-1-(3-(2-isopropyl-5-methylphenyl)-4-oxothiazolidin-2-ylidene)-3-(4-(((1-(4-(trifluoromethoxy)phenyl)-1H-1,2,4-triazol-3-yl)oxy)methyl)phenyl)urea], the mortality at 50 µg/cm2 in test [1] and in test [2] was 50 to 100% throughout.

On to `Cc1ccc(C(C)C)c(N2C(=O)CS/C2=N\C(=O)Nc2ccc(COc3ncn(-c4ccc(OC(F)(F)F)cc4)n3)cc2F)c1` [F2, (Z)-1-(2-Fluoro-4-(((1-(4-(trifluoromethoxy)phenyl)-1H-1,2,4-triazol-3-yl)oxy)methyl)phenyl)-3-(3-(2-isopropyl-5-methylphenyl)-4-oxothiazolidin-2-ylidene)urea], for which the mortality at 50 µg/cm2 in test [1] and in test [2] was 50 to 100% throughout.

Take `Cc1ccc(C(C)C)c(N2C(=O)CS/C2=N\C(=O)Nc2ccc(COc3ncn(-c4ccc(OC(F)(F)F)cc4)n3)c(F)c2)c1` [F3, (Z)-1-(3-Fluoro-4-(((1-(4-(trifluoromethoxy)phenyl)-1H-1,2,4-triazol-3-yl)oxy)methyl)phenyl)-3-(3-(2-isopropyl-5-methylphenyl)-4-oxothiazolidin-2-ylidene)urea]: the mortality at 50 µg/cm2 in test [1] and in test [2] was 50 to 100% throughout.

Take `COc1cc(NC(=O)/N=C2\SCC(=O)N2c2cc(C)ccc2C(C)C)ccc1COc1ncn(-c2ccc(OC(F)(F)F)cc2)n1` [F4, (Z)-1-(3-(2-Isopropyl-5-methylphenyl)-4-oxothiazolidin-2-ylidene)-3-(3-methoxy-4-(((1-(4-(trifluoromethoxy)phenyl)-1H-1,2,4-triazol-3-yl)oxy)methyl)phenyl)urea]: the mortality at 50 µg/cm2 in test [1] and in test [2] was 50 to 100% each time.

With `CCCc1ccc(C)cc1N1C(=O)CS/C1=N\C(=O)Nc1ccc(COc2ncn(-c3ccc(OC(F)(F)F)cc3)n2)cc1F` [F6, (Z)-1-(2-Fluoro-4-(((1-(4-(trifluoromethoxy)phenyl)-1H-1,2,4-triazol-3-yl)oxy)methyl)phenyl)-3-(3-(5-methyl-2-propylphenyl)-4-oxothiazolidin-2-ylidene)urea], the mortality at 50 µg/cm2 in test [1] and in test [2] was 50 to 100% each time.

As for `CCCc1ccc(C)cc1N1C(=O)CS/C1=N\C(=O)Nc1ccc(COc2ncn(-c3ccc(OC(F)(F)F)cc3)n2)c(F)c1` [F7, (Z)-1-(3-Fluoro-4-(((1-(4-(trifluoromethoxy)phenyl)-1H-1,2,4-triazol-3-yl)oxy)methyl)phenyl)-3-(3-(5-methyl-2-propylphenyl)-4-oxothiazolidin-2-ylidene)urea], the mortality at 50 µg/cm2 in test [1] and in test [2] was 50 to 100% in each case.

On to `CCCc1ccc(C)cc1N1C(=O)CS/C1=N\C(=O)Nc1ccc(COc2ncn(-c3ccc(OC(F)(F)F)cc3)n2)c(OC)c1` [F10, (Z)-1-(3-Methoxy-4-(((1-(4-(trifluoromethoxy)phenyl)-1H-1,2,4-triazol-3-yl)oxy)methyl)phenyl)-3-(3-(5-methyl-2-propylphenyl)-4-oxothiazolidin-2-ylidene)urea], for which the mortality at 50 µg/cm2 in test [1] and in test [2] was 0% throughout.

For the molecule `COCc1ccc(C)cc1N1C(=O)CS/C1=N\C(=O)Nc1ccc(COc2ncn(-c3ccc(OC(F)(F)F)cc3)n2)c(OC)c1` [F11, (Z)-1-(3-Methoxy-4-(((1-(4-(trifluoromethoxy)phenyl)-1H-1,2,4-triazol-3-yl)oxy)methyl)phenyl)-3-(3-(2-(methoxymethyl)-5-methylphenyl)-4-oxothiazolidin-2-ylidene)urea], the mortality at 50 µg/cm2 in test [1] and in test [2] was 0% in each case.

On to `Cc1cc(N2C(=O)CS/C2=N\C(=O)Nc2ccc(COc3ncn(-c4ccc(OC(F)(F)F)cc4)n3)cc2F)c(C(C)C)cc1F` [F12, (Z)-1-(3-(4-Fluoro-2-isopropyl-5-methylphenyl)-4-oxothiazolidin-2-ylidene)-3-(2-fluoro-4-(((1-(4-(trifluoromethoxy)phenyl)-1H-1,2,4-triazol-3-yl)oxy)methyl)phenyl)urea], for which the mortality at 50 µg/cm2 in test [1] and in test [2] was 50 to 100% each time.

On to `CCCc1ccc(C)cc1N1C(=O)CS/C1=N\C(=O)Nc1ccc(COc2ncn(-c3ccc(OC(F)(F)F)cc3)n2)cn1` [F13, (Z)-1-(3-(5-Methyl-2-propylphenyl)-4-oxothiazolidin-2-ylidene)-3-(5-(((1-(4-(trifluoromethoxy)phenyl)-1H-1,2,4-triazol-3-yl)oxy)methyl)pyridin-2-yl)urea], for which the mortality at 50 µg/cm2 in test [1] and in test [2] was 50 to 100% throughout.

For `Cc1ccc(C(C)C)c(N2C(=O)CS/C2=N\C(=O)Nc2ccc(COc3ncn(-c4ccc(OC(F)(F)F)cc4)n3)cn2)c1` [F14, (Z)-1-(3-(2-Isopropyl-5-methylphenyl)-4-oxothiazolidin-2-ylidene)-3-(5-(((1-(4-(trifluoromethoxy)phenyl)-1H-1,2,4-triazol-3-yl)oxy)methyl)pyridin-2-yl)urea], the mortality at 50 µg/cm2 in test [1] and in test [2] was 50 to 100% in each case.

For `Cc1ccc(C(C)C)c(N2C(=O)CS/C2=N\C(=O)Nc2ccc(OCc3ncn(-c4ccc(OC(F)(F)F)cc4)n3)cc2)c1` [F15, (Z)-1-(3-(2-Isopropyl-5-methylphenyl)-4-oxothiazolidin-2-ylidene)-3-(4-((1-(4-(trifluoromethoxy)phenyl)-1H-1,2,4-triazol-3-yl)methoxy)phenyl)urea], the mortality at 50 µg/cm2 in test [1] and in test [2] was 50 to 100% each time.

Take `Cc1ccc(C(C)C)c(N2C(=O)CS/C2=N\C(=O)Nc2ccc(OCc3ncn(-c4ccc(OC(F)(F)F)cc4)n3)cc2F)c1` [F16, (Z)-1-(2-Fluoro-4-((1-(4-(trifluoromethoxy)phenyl)-1H-1,2,4-triazol-3-yl)methoxy)phenyl)-3-(3-(2-isopropyl-5-methylphenyl)-4-oxothiazolidin-2-ylidene)urea]: the mortality at 50 µg/cm2 in test [1] and in test [2] was 50 to 100% throughout.

Take `Cc1ccc(C(C)C)c(N2C(=O)CS/C2=N\C(=O)Nc2c(F)cc(OCc3ncn(-c4ccc(OC(F)(F)F)cc4)n3)cc2F)c1` [F18, (Z)-1-(2,6-Difluoro-4-((1-(4-(trifluoromethoxy)phenyl)-1H-1,2,4-triazol-3-yl)methoxy)phenyl)-3-(3-(2-isopropyl-5-methylphenyl)-4-oxothiazolidin-2-ylidene)urea]: the mortality at 50 µg/cm2 in test [1] and in test [2] was 50 to 100% in each case.

Turning to `COCc1ccc(C)cc1N1C(=O)CS/C1=N\C(=O)Nc1c(F)cc(OCc2ncn(-c3ccc(OC(F)(F)F)cc3)n2)cc1F` [F19, (Z)-1-(2,6-Difluoro-4-((1-(4-(trifluoromethoxy)phenyl)-1H-1,2,4-triazol-3-yl)methoxy)phenyl)-3-(3-(2-(methoxymethyl)-5-methylphenyl)-4-oxothiazolidin-2-ylidene)urea], the mortality at 50 µg/cm2 in test [1] and in test [2] was 50 to 100% throughout.

Take `COC(C)c1ccc(C)cc1N1C(=O)CS/C1=N\C(=O)Nc1ccc(OCc2ncn(-c3ccc(OC(F)(F)F)cc3)n2)cc1F` (centres unmarked) [F20, (Z)-1-(2-Fluoro-4-((1-(4-(trifluoromethoxy)phenyl)-1H-1,2,4-triazol-3-yl)methoxy)phenyl)-3-(3-(2-(1-methoxyethyl)-5-methylphenyl)-4-oxothiazolidin-2-ylidene)urea]: the mortality at 50 µg/cm2 in test [1] and in test [2] was 50 to 100% in each case.

For `CCCc1ccc(C)cc1N1C(=O)CS/C1=N\C(=O)Nc1ccc(OCc2ncn(-c3ccc(OC(F)(F)F)cc3)n2)cc1F` [F23, (Z)-1-(2-Fluoro-4-((1-(4-(trifluoromethoxy)phenyl)-1H-1,2,4-triazol-3-yl)methoxy)phenyl)-3-(3-(5-methyl-2-propylphenyl)-4-oxothiazolidin-2-ylidene)urea], the mortality at 50 µg/cm2 in test [1] and in test [2] was 50 to 100% in each case.

Turning to `Cc1ccc(C(C)C)c(N2C(=O)CS/C2=N\C(=O)Nc2ccc(OCc3ncn(-c4ccc(OC(F)(F)F)cc4)n3)cc2C)c1` [F25, (Z)-1-(3-(2-Isopropyl-5-methylphenyl)-4-oxothiazolidin-2-ylidene)-3-(2-methyl-4-((1-(4-(trifluoromethoxy)phenyl)-1H-1,2,4-triazol-3-yl)methoxy)phenyl)urea], the mortality at 50 µg/cm2 in test [1] and in test [2] was 50 to 100% throughout.

For `CCCc1ccc(C)cc1N1C(=O)CS/C1=N\C(=O)Nc1ccc(OCc2ncn(-c3ccc(OC(F)(F)F)cc3)n2)cc1C` [F26, (Z)-1-(3-(5-Methyl-2-propylphenyl)-4-oxothiazolidin-2-ylidene)-3-(2-methyl-4-((1-(4-(trifluoromethoxy)phenyl)-1H-1,2,4-triazol-3-yl)methoxy)phenyl)urea], the mortality at 50 µg/cm2 in test [1] and in test [2] was 50 to 100% in each case.
